Test results published in patent US6344460B1, “Propynyl uracils” (Lonza Inc., priority 2000, dated 2002).
Values belong to the molecule of their own block, whether it stands above or below them.

How the values were obtained:
[1] = system: Aspergillus niger ATCC #16404; experiment: Minimum inhibitory concentration by zone of inhibition assay; type: cell-based; conditions: 5 days contact, Day-Engley neutralizing media
Description: A. niger ATCC #16404 was contacted with each sulfone for 5 days in a Day-Engley neutralizing media.

[2] = system: Chaetomium globosum (a soft rot, ATCC 6205); conditions: C. globosum; minimum concentration for 50% zone of inhibition, 9 days contact
Description: (§1) Prod J. 45(1):86-9 (1995), was performed to determine the minimum concentration of uracil necessary to achieve a 50% zone of inhibition over 9 days of contact time.

[3] = system: Postia placenta (a brown rot, ATCC 11538); conditions: P. placenta; for IC50 (ppm): minimum concentration for 50% zone of inhibition, 9 days contact
Description: as §1

[4] = system: Gloephyllium trabeum (a brown rot, ATCC 11539); conditions: G. trabeum; for IC50 (ppm): minimum concentration for 50% zone of inhibition, 9 days contact
Description: as §1

[5] = system: Trametes versicolor (a white rot; ATCC 42462); conditions: T. versicolor; for IC50 (ppm): minimum concentration for 50% zone of inhibition, 9 days contact
Description: as §1

IC50 (ppm) [2]: 3.22 ppm | IC50 (ppm) [3]: <5.0 ppm | IC50 (ppm) [4]: 3.22 ppm | IC50 (ppm) [5]: 6.12 ppm
SMILES: O=c1c(Cl)cn(CC#CI)c(=O)n1CC#CI
5 Day Minimum Inhibitory Concentration Aspergillus niger [1]: 10 to 30 mg/L | concentration at which a total kill was observed [3]: no more than 50 ppm | concentration at which a total kill was observed [4]: no more than 50 ppm | concentration at which a total kill was observed [5]: no more than 50 ppm

SMILES: Cc1cn(CC#CI)c(=O)n(CC#CI)c1=O [1N,3N-Bis(3-iodo-2-propynyl)-5-methyluracil]
5 Day Minimum Inhibitory Concentration Aspergillus niger [1]: 10 to 30 mg/L

SMILES: O=c1ccn(CC#CI)c(=O)n1CC#CI [1N, 3N-bis(3-iodo-2-propynyl)-uracil, 1N,3N-Bis(3-iodo-2-propynyl)-uracil]
5 Day Minimum Inhibitory Concentration Aspergillus niger [1]: 3 to 10 mg/L

SMILES: O=c1c(F)cn(CC#CI)c(=O)n1-c1ccco1 [1N-(3-iodo-2-propynyl)-3N-(2-furanyl)-5-fluorouracil]
5 Day Minimum Inhibitory Concentration Aspergillus niger [1]: 30 to 100 mg/L

SMILES: O=c1ccn(CC#CI)c(=O)n1C1O[C@H](CO)[C@@H](O)[C@H]1O (stereo partly drawn) [1N-(3-iodo-2-propynyl)-3N-(D-1-ribose)-uracil]
5 Day Minimum Inhibitory Concentration Aspergillus niger [1]: 100 to 300 mg/L

SMILES: O=c1[nH]cc([N+](=O)[O-])c(=O)n1CC#CI [3N-(3-iodo-2-propynyl)-5-nitrouracil]
5 Day Minimum Inhibitory Concentration Aspergillus niger [1]: 30 to 100 mg/L

SMILES: CCCCCCCCCC[N+](C)(C)CCCCCCCCCC.[Cl-] [didecydimethyl ammonium chloride, didecyldimethyl ammonium chloride, reference compound]
IC50 (ppm) [2]: 62.9 ppm | IC50 (ppm) [3]: 5.6 ppm | IC50 (ppm) [4]: 6.45 ppm | IC50 (ppm) [5]: 53.9 ppm
